Reference: patent US11135224B2, “Methods of sensitizing estrogen receptor positive (ER+) breast cancer cells to endocrine therapy” (New York University, priority 2018, dated 2021)

Legend:
[1] = tested on: eIF4E phosphorylation (MNK1); test: Immunoblot of eIF4E phosphorylation, CGP57380 dose escalation in TamS and TamR cells; format: cell-based, human; conditions: escalating doses, 2 hours
Experimental: Endogenous eIF4E was silenced by shRNA. Cell proliferation was assayed by MTT assay with cells treated with DMSO vehicle or 1 μM 4-OHT. Results are from three independent experiments. […] Endogenous eIF4E was silenced by shRNA. Cell proliferation was assayed by MTT assay using conditions described above for FIG. 4. Results from three independent experiments are shown. FIG. 6C is an immunoblot of TamS and TamR cells treated with escalating doses of CGP57380 (GCP) for 2 hours and lysed in NP-40 buffer; equal protein amounts were probed for P-eIF4E, total eIF4E, and β-actin (loading control). […] Cells were treated with DMSO, 1 μM 4-OHT, or 4-OHT and MNK1 inhibitor CGP. […]
Immunoblot Studies: In brief, cells were lysed in NP-40 buffer (50 mM HEPES, pH 7.0, 150 mM NaCl, 2 mM EDTA, 25 mM NaF, 25 mM β-glycerophosphate, 2 mM Na3VO4, 1% IGEPAL, and Complete Mini protease inhibitor cocktail tablet+/−EDTA; Roche) or RIPA lysis buffer (1% Triton X-100, 1% sodium deoxycholate, 0.1% SDS, 150 mM NaCl, 50 mM Tris, pH 7.4, 2 mM Na3VO4, 25 mM β-glycerophosphate, 15 mM NaF, and complete protease inhibitor mix; Roche) and lysate cleared by centrifugation at 13,000 rpm for 10 minutes at 4° C. Lysate protein concentration was determined for each sample using BCA assay. […] Quantitation was performed by determination of the integrated density of the bands using ImageJ software. […]

Runx2 mRNA = Runx2 mRNA levels (RT-qPCR) after CGP57380; format: cell-based, human; conditions: treated vs untreated cells
Experimental: Quantitative Real-Time PCR (RT-qPCR) and Analysis: RNA was extracted using Trizol as per the manufacturer's instructions. One microgram of RNA was used for reverse transcription reaction using Promega GoScript, as per the manufacturer's instructions. qRT-PCR was completed using iTaq Universal 2× SYBR Green qPCR master mix (Bio-Rad) and an Applied Biosystems 7500 Fast RT-PCR machine as per the manufacturers' instructions. Fold change was calculated using the 2^−ΔΔCt method.
The biological functions of mRNAs identified as highly eIF4E-dependent in tamoxifen-resistant cells were next assessed. Of these, Runx2 was particularly notable because it encodes a protein with a number of activities that could play a role in tamoxifen resistance, as it is an important inhibitor of estrogen signaling and stimulates oncogenic pathways. […] It was also determined whether Runx2 mRNA requires eIF4E S209 phosphorylation by Mnk1. Cells were untreated or treated with CGP57380, and Runx2 mRNA and protein levels were determined.

Nc1ncnc2n[nH]c(Nc3ccc(F)cc3)c12 [CGP57380]
concentration for complete inhibition of eIF4E phosphorylation [1]: 10 µM
Runx2 mRNA levels (Runx2 mRNA): no statistically significant difference
